The values below come from US20030133972A1, “Targeted multivalent macromolecules” (priority 2000, published 2003).

One test has as its target αvβ3 integrin (Homo sapiens, UniProt P05106+P06756). Briefly: Competitive integrin binding assay (PVs mixed with free ligand 10). As to conditions: read-out: concentration of free ligand 10 to achieve 50% inhibition of PV binding; against PV1 carrying the equivalent of 0.5 μM of 10 on its surface.
In test [1] the test system is αvβ3 positive M21 Melanoma cells binding to vitronectin coated plates. Briefly: Cell adhesion inhibition assay on vitronectin coated plates. The class given is cell-based, human. As to conditions: 1 h incubation, PVs as equivalents of compound 10 on the surface, read-out: Cell Adhesion Assay IC50 (μM of 10 on NPs).
Test [2] concerns collagen receptors (α2β1 integrins). Briefly: Cell adhesion assay on plates coated with collagen. The class given is cell-based. How it is done: The cell adhesion assay was also performed with plates coated with collagen. Collagen binds to collagen receptors (α2β1 integrins) but not αvβ3 integrins. […] Without being bound by theory, it is believed that the observed inhibition of cell adhesion by PV-integrin agonist is due to the PV preventing interaction of collagen and its receptor by steric hindrance, due to the large size of the PV. Thus, not only does the PV targeted to a specific receptor bind to the receptor on the cell surface, but it blocks access to adjacent receptors due to its steric bulk.

In test [3] the test system is MS1 mouse endothelial pancreatic islet cells. Briefly: In vitro cell proliferation assay (crystal violet), endothelial cells. The class given is cell-based. As to conditions: murine endothelial cells. How it is done: The effect of free doxorubicin or liposome-encapsulated doxorubicin on the cells was assayed calorimetrically by crystal violet staining method with slight modification. Mouse endothelial cells (ATCC# CRL-2279) and mouse melanoma cells (M2) were seeded in 96well flat-bottomed microtitre plates. The effect of the vesicles on cell proliferation was determined with cells near confluence (about 80%). The medium in each well was replaced with 100 ul of culture medium containing 250 ug/ml of vesicles containing doxorubicin. The mouse endothelial and melanoma cells were incubated for 1 hour at 37° C. and 5% CO2. After 1 hour incubation, the drug was removed, and compete medium that was lacking drug was added, and the cells were incubated for 48 hours at 37° C. and 5% CO2. The experiment was performed in duplicate. At the end of the incubation period, the cells were washed once with PBS and the cultures were fixed by 70% ethanol overnight. Next, the cells were stained with 100 ul of 0.1% crystal violet in 10% ethanol for 10 minutes at room temperature, and the cells were gently washed with water for 5 times. Next, 100 ul of 1% SDS was added to each well and the plates were placed on an orbital shaker for 15 minutes. After the crystal violet in cell membrane was removed with SDS, the plate was read at 590 nm. Finally, cell viability was evaluated as the mean value of optical density.

A further test deals with VEGFR1 (Homo sapiens, UniProt P17948). As to conditions: affinity of VEGFR1 for VEGF; cited from earlier work.

“And” between values parts separate entries of the source, which are not always exact repeats. Equal entries are not always repeated.

“4-[2-(3,4,5,6-Tetrahydropyrimidin-2-ylamino)ethyloxy]-benzoyl-2-(S)amino Ethylsulfonylamino-β-alanine [Compound 10]”: the IC50 on αvβ3 integrin is 65 µM; in test [1], 64 µM and 63.9 µM. Further, in test [2], the “inhibition of cell adhesion to collagen coated plates” value is “neither the PV alone nor the agonist alone inhibited cell adhesion”.

In the case of `COc1cccc2c1C(=O)c1c(O)c3c(c(O)c1C2=O)C[C@@](O)(C(=O)CO)C[C@@H]3O[C@H]1C[C@H](N)[C@H](O)[C@H](C)O1` [Doxorubicin, doxorubicin], the “effect on cell proliferation” value in test [3] was “significant reductions in cell proliferation”.

By Kd is commonly meant the equilibrium constant for the complex coming apart. For VEGF, on VEGFR1, the Kd was 0.001 to 0.02 nM.
